According to publication PMC3674995, “Safety, Pharmacokinetic, and Efficacy Studies of Oral DB868 in a First Stage Vervet Monkey Model of Human African Trypanosomiasis” (PLoS Neglected Tropical Diseases, 2013):
Where “and” joins values, the source holds several entries; their conditions need not be identical. Equal values may be shown once. Read-outs that look alike come from different tables or passages of the source.

Tests used:
[1] = tested on: T. b. rhodesiense KETRI 2537; set-up: method as in PMID 19064893; conditions: oral, for 5 days; first stage HAT monkey model; cited from earlier work
[2] = set-up: method as in earlier work; conditions: cited from earlier work
[3] = set-up: method as in PMID 20721830; conditions: cited from earlier work
[4] = oral administration, cited from earlier work
[5] = Metabolism of DB868 in vervet monkey liver microsomes; type: in vitro ADME; conditions: incubation of 10 µM DB868; HPLC/UV; formation confirmed by fluorescence and mass spectrometric detection
Protocol: DB868 metabolism was studied in male vervet monkey liver microsomes (custom-prepared by XenoTech, LLC, Lenexa, KS, USA) by adapting a previously published method. Briefly, incubation mixtures contained 10 µM DB868, 0.5 mg/mL monkey liver microsomes, and 3.3 mM MgCl2 in 100 mM phosphate buffer (pH 7.4). Reactions were initiated by the addition of NADPH (1 mM final concentration). Control incubations were carried out without NADPH, DB868, or liver microsomes. Aliquots (100 µL) of the reaction mixtures were removed at 0, 5, 10, 15, 30, 60 and 120 min and mixed with 100 µL of ice-cold acetonitrile. After centrifugation to pellet precipitated proteins, the supernatants were analyzed by HPLC/UV and fluorescence using the method previously described for pafuramidine (DB289) and furamidine (DB75). Metabolite identification was performed by comparing retention times to those of synthetic standards for M1 (DB1679), M2 (DB840), M3 (DB1712), and DB829. DB868 and its metabolites were quantified using a calibration curve (0.1–10 µM) generated using synthetic standards.

[6] = Pharmacokinetics in infected vervet monkeys (first stage HAT); type: in vivo, vervet monkey; conditions: for AUClast: last measurable concentration varied (2–133 days)
[7] = tested on: T. b. rhodesiense STIB900; set-up: method as in PMID 19620327; conditions: in vitro; cited from earlier work
[8] = tested on: T. b. rhodesiense STIB900; set-up: method as in PMID 19620327; conditions: intraperitoneal administration; cited from earlier work
T. b. brucei GVR35 = tested on: T. b. brucei GVR35; set-up: method as in PMID 19620327; conditions: intraperitoneal administration; cited from earlier work
[9] = tested on: T. b. brucei s427 trypanosomes; set-up: method as in PMID 21402852; conditions: 2.7 µM; cited from earlier work
[10] = Pharmacokinetics in uninfected vervet monkeys; conditions: for half-life: po, geometric mean terminal elimination half-life
[11] = oral DB868 10 mg/kg group, infected
[12] = oral DB868 20 mg/kg group, infected
[13] = oral DB868 20 mg/kg×5 days, infected, individual monkeys
[14] = after final oral dose of DB868 10 mg/kg×10 days, uninfected, individual monkeys
[15] = after final oral dose of DB868 30 mg/kg×10 days, uninfected, individual monkeys

With `CONC(=N)c1ccc(-c2ccc(-c3ccc(C(=N)NOC)cc3)o2)cc1` [pafuramidine, 2,5-bis(4-amidinophenyl)furan-bis-O-methylamidoxime] as the compound, how does the “dose required to achieve complete cure” value [1] read?
Its value is 10 mg/kg.

What about the “increase in KIM-1” value ([2]; oral 12 mg/kg/day×28 days, one week post-LDD) of the same compound?
Its value is 13 fold.

And the “increase in ALT compared to untreated rats” value ([2]; rats, 12 mg/kg/day for 4 weeks)?
The value was 18 fold.

What about the liver injury ([3]; extended phase I clinical trial in humans) of the same compound?
The liver injury was “transient liver injury”.

What about the “patients with unexpected severe kidney injury” value ([3]; five patients) of the same compound?
Its value is roughly 6%.

And the “classical kidney injury biomarkers, BUN and serum creatinine” value ([4]; mouse diversity panel)?
The value was “remained unchanged”.

And the “urinary kidney injury molecule-1 (KIM-1)” value ([4]; sensitive strains of 34 inbred mouse strains)?
Its value is “marked elevations”.

Which “detection of active compound formed from DB868” value [5] does the source give for `N=C(N)c1ccc(-c2ccc(-c3ccc(C(=N)N)cn3)o2)nc1` [DB829, 2,5-bis(5-amidino-2-pyridyl)furan] here?
Its value is “at the limit of detection in UV mode”.

And the Cmax ([6]; after final oral dose of DB868 3 mg/kg×7 days, first stage HAT, individual monkeys 638, 643, read-out: Cmax)?
Its Cmax is 230 nM.

What about the Cmax ([6]; after final oral dose of DB868 10 mg/kg×7 days, first stage HAT, individual monkeys 675, 691, read-out: Cmax) of the same compound?
The Cmax was 200 nM.

And the Tmax ([6]; after final oral dose of DB868 20 mg/kg×5 days, infected, individual monkeys)?
The Tmax was 4.08 h.

What about the Tmax ([6]; monkey, plasma, po, 3 mg/kg, oral DB868 3 mg/kg group, infected, read-out: median Tmax (converted)) of the same compound?
Its Tmax is 4 h.

What about the Cmax ([6]; monkey, plasma, po, 3 mg/kg/day, oral DB868 3 mg/kg/day×7 days, infected, read-out: median Cmax) of the same compound?
Its Cmax is 170 nM.

And the Tmax ([6]; monkey, plasma, po, 10 mg/kg, oral DB868 10 mg/kg group, infected, read-out: median Tmax (converted))?
Its Tmax is 24 h.

What about the Cmax ([6]; monkey, plasma, po, 10 mg/kg/day, after final oral dose of DB868 10 mg/kg×7 days, first stage HAT, individual monkeys 675, 691, read-out: Cmax) of the same compound?
The Cmax was 210 nM.

What about the Cmax ([6]; monkey, plasma, po, 10 mg/kg/day, oral DB868 10 mg/kg/day×7 days, infected, read-out: median Cmax) of the same compound?
The Cmax was 205 nM.

And the half-life ([6]; monkey, plasma, po, 10 mg/kg/day, oral DB868 10 mg/kg×7 days, infected, monkey 691, read-out: t1/2 (terminal elimination half-life) (converted))?
The half-life was 600 h.

What about the Tmax ([6]; monkey, plasma, po, 20 mg/kg, oral DB868 20 mg/kg group, infected, read-out: median Tmax (converted)) of the same compound?
Its Tmax is 4 h.

And the Cmax ([6]; monkey, plasma, po, 20 mg/kg/day, after final oral dose of DB868 20 mg/kg×5 days, first stage HAT, individual monkeys 585, 658, read-out: Cmax)?
The Cmax was 370 nM.

What about the Tmax ([6]; monkey, plasma, po, 20 mg/kg/day, after final oral dose of DB868 20 mg/kg×5 days, infected, individual monkeys, read-out: Tmax (converted)) of the same compound?
The Tmax was 4.08 h.

What about the Cmax ([6]; monkey, plasma, po, 20 mg/kg/day, oral DB868 20 mg/kg/day×5 days, infected, read-out: median Cmax) of the same compound?
The Cmax was 435 nM.

What about the “median Cmax relative to IC50 (14 nmol/L) against T. b. rhodesiense STIB900” value (“median Cmax relative to IC50 (14 nmol/L)” below) ([6]; oral DB868 3 mg/kg/day for 7 days, infected) of the same compound?
The value was 12 fold.

What about the AUClast ([6]; oral DB868 3 mg/kg×7 days, infected, individual monkeys) of the same compound?
The AUClast was 160 nmol·days/L and 950 nmol·days/L.

And the “mean AUClast relative to 3 mg/kg group” value [6, 11]?
The value was 7 fold.

What about the “median Cmax relative to 3 mg/kg group” value [6, 11] of the same compound?
The value was 1.2 fold.

What about the “median Cmax relative to IC50 (14 nmol/L)” value ([6]; oral DB868 10 mg/kg/day for 7 days, infected) of the same compound?
Its value is 15 fold.

What about the AUClast ([6]; oral DB868 10 mg/kg×7 days, infected, individual monkeys) of the same compound?
The AUClast was 4000 nmol·days/L and 3500 nmol·days/L.

And the “AUC0-∞” value ([6]; oral DB868 10 mg/kg×7 days, infected, monkey 691)?
Its value is 3900 nmol·days/L.

And the “mean AUClast relative to 3 mg/kg group” value [6, 12]?
Its value is 10 fold.

And the “median Cmax relative to 3 mg/kg group” value [6, 12]?
Its value is 2.6 fold.

And the “median Cmax relative to IC50 (14 nmol/L)” value ([6]; oral DB868 20 mg/kg/day for 5 days, infected)?
Its value is 31 fold.

What about the “AUC0-∞” value [6, 13] of the same compound?
The value was 10000 nmol·days/L and 5300 nmol·days/L.

What about the “t1/2 (terminal elimination half-life)” value [6, 13] of the same compound?
Its value is 85 days and 24 days.

What about the AUClast [6, 13] of the same compound?
Its AUClast is 7300 nmol·days/L and 4100 nmol·days/L.

What about the “median AUC0-∞ of 20 mg/kg group relative to monkey 691 (10 mg/kg group)” value ([6]; oral DB868, infected) of the same compound?
The value was “twice”.

What about the “median terminal elimination half-life of 20 mg/kg group relative to monkey 691 (10 mg/kg group)” value ([6]; oral DB868, infected) of the same compound?
Its value is “twice”.

What about the IC50 [7] of the same compound?
Its IC50 is 14 nM.

What about the curative [8] of the same compound?
The curative was 100%.

And the curative (T. b. brucei GVR35)?
The curative was 100%.

What about the “exposure required to kill trypanosomes in culture” value [9] of the same compound?
The value was 24 h.

What about the “AUC0-∞” value [10, 14] of the same compound?
Its value is 3700 nmol/L•day (2×) and 4100 nmol/L•day and 2400 nmol/L•day.

What about the AUClast [10, 14] of the same compound?
The AUClast was 3000 nmol/L•day and 2800 nmol/L•day and 2100 nmol/L•day (2×).

And the “t1/2 (terminal elimination half-life)” value [10, 14]?
Its value is 30 day (2×) and 55 day and 18 day.

And the “AUC0-∞” value [10, 15]?
The value was 5600 nmol·days/L and 7000 nmol·days/L and 6200 nmol·days/L and 12100 nmol·days/L.

What about the AUClast [10, 15] of the same compound?
The AUClast was 4700 nmol·days/L and 5700 nmol·days/L and 4600 nmol·days/L and 7100 nmol·days/L.

What about the concentration at 4 h ([10]; both, monkey, in vivo, 10 mg/kg, C4 h, plasma concentration at 4 h after final (10th) oral dose of DB868 10 mg/kg×10 days, uninfected, individual monkeys 643, 659, 675, 677) of the same compound?
The concentration at 4 h was 240 nM.

And the concentration at 4 h ([10]; both, monkey, in vivo, 10 mg/kg/day, geometric mean C4 h, oral DB868 10 mg/kg/day×10 days, uninfected, n = 4)?
The concentration at 4 h was 185 nM.

And the concentration at 4 h ([10]; both, monkey, in vivo, 30 mg/kg, C4 h, plasma concentration at 4 h after final (10th) oral dose of DB868 30 mg/kg×10 days, uninfected, individual monkeys 546, 567, 668, 679)?
Its concentration at 4 h is 440 nM.

And the concentration at 24 h ([10]; both, monkey, in vivo, 30 mg/kg, C24 h, plasma, 24 h after final oral dose of DB868 30 mg/kg×10 days, uninfected, individual monkeys)?
Its concentration at 24 h is 360 nM.

What about the concentration at 4 h ([10]; both, monkey, in vivo, 30 mg/kg/day, geometric mean C4 h, oral DB868 30 mg/kg/day×10 days, uninfected, n = 4) of the same compound?
The concentration at 4 h was 320 nM.

And the half-life ([10]; both, monkey, in vivo, 10 mg/kg/day, oral DB868 10 mg/kg/day×10 days, uninfected (second of 'respectively'; agrees with Table 1))?
The half-life was 744 h.

What about the half-life ([10]; both, monkey, in vivo, 30 mg/kg/day, oral DB868 30 mg/kg/day×10 days, uninfected (first of 'respectively'; agrees with Table 1)) of the same compound?
Its half-life is 696 h.

What about the “geometric mean C4 h relative to IC50 (14 nmol/L) against T. b. rhodesiense STIB900” value ([10]; oral DB868 10 mg/kg/day×10 days, uninfected) of the same compound?
The value was 13 fold.

What about the “geometric mean C4 h relative to IC50 (14 nmol/L) against T. b. rhodesiense STIB900” value ([10]; oral DB868 30 mg/kg/day×10 days, uninfected) of the same compound?
Its value is 23 fold.

What about the “time plasma concentrations remained >100 nmol/L after last DB868 dose” value ([10]; oral DB868, in some monkeys (Figures 6 and 8, uninfected and infected)) of the same compound?
Its value is “up to 7 days post-LDD”.

And the “geometric mean AUC0-∞, 30 mg/kg group relative to 10 mg/kg group” value ([10]; oral DB868×10 days, uninfected)?
Its value is 2.2 fold.

What about the “geometric mean AUClast, 30 mg/kg group relative to 10 mg/kg group” value ([10]; oral DB868×10 days, uninfected) of the same compound?
The value was 2.2 fold.

And the C4 h ([10]; plasma concentration at 4 h after final (10th) oral dose of DB868 10 mg/kg×10 days, uninfected, individual monkeys 643, 659, 675, 677)?
The C4 h was 160 nM and 180 nM and 170 nM.

And the C4 h ([10]; plasma concentration at 4 h after final (10th) oral dose of DB868 30 mg/kg×10 days, uninfected, individual monkeys 546, 567, 668, 679)?
The C4 h was 290 nM and 300 nM and 270 nM.

And the C24 h ([10]; plasma, 24 h after final oral dose of DB868 10 mg/kg×10 days, uninfected, individual monkeys, BLQ = below limit of quantitation)?
Its C24 h is 140 nM and 260 nM and 120 nM and 170 nM.

And the C24 h ([10]; plasma, 24 h after final oral dose of DB868 30 mg/kg×10 days, uninfected, individual monkeys)?
The C24 h was 210 nM and 280 nM and 340 nM.
